Experimental data reported in publication PMC12229235 (Science signaling, 2024).

Target: AKT3 (Homo sapiens, UniProt Q9Y243)
Assay: LANCE Ultra TR-FRET kinase assay with Ulight-crosstide substrate
Type: biochemical

AKT3, sequence (Q9Y243 2-479): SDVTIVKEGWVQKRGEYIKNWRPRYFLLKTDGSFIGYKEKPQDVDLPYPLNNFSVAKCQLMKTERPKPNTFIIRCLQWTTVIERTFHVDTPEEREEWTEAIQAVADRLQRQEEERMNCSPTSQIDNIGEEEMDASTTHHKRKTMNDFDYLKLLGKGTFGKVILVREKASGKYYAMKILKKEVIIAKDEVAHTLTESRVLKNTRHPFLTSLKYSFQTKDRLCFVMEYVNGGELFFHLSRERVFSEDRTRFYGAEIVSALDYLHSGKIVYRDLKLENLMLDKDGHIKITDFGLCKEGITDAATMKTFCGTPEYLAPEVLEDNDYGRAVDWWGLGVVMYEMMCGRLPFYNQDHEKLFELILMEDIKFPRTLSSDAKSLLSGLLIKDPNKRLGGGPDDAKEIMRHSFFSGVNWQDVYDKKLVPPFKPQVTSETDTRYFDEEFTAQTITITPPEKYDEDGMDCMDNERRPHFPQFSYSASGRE
AKT3, sequence (O15530 whole entry partner): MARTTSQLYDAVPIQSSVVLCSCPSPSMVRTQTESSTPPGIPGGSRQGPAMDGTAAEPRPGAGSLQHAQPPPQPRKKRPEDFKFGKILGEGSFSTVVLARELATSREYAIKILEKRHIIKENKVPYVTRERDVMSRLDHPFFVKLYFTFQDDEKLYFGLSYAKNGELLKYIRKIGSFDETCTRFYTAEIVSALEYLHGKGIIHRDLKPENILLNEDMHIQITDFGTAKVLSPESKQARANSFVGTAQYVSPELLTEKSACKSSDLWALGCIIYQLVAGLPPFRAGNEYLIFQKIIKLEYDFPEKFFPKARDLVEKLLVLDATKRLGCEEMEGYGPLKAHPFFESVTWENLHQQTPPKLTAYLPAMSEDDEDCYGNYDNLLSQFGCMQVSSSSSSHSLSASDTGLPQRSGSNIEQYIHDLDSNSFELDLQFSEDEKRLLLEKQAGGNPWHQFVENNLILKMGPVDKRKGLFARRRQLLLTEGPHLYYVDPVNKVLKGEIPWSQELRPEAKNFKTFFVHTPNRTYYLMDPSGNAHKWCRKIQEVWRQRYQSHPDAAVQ

CC(=O)N(C)[C@H]1CC[C@H](CC(=O)Nc2cc(-c3ccccc3)c(-c3ccc(C4(N)CCC4)cc3)cn2)CC1 [AKT3i, N-(5-(4-(1-aminocyclobutyl)phenyl)-4-phenylpyridin-2-yl)-2-((1r,4r)-4-(N-methylacetamido)cyclohexyl) acetamide]
IC50: 13 nM
